The target of one assay is T1, DHX33 protein (Mus musculus, UniProt Q80VY9).
T1 construct: purified full-length DHX33 protein; made in house; host or cells: E. coli BL-21pLysS (DE3)
T1 sequence (Q80VY9 1-698): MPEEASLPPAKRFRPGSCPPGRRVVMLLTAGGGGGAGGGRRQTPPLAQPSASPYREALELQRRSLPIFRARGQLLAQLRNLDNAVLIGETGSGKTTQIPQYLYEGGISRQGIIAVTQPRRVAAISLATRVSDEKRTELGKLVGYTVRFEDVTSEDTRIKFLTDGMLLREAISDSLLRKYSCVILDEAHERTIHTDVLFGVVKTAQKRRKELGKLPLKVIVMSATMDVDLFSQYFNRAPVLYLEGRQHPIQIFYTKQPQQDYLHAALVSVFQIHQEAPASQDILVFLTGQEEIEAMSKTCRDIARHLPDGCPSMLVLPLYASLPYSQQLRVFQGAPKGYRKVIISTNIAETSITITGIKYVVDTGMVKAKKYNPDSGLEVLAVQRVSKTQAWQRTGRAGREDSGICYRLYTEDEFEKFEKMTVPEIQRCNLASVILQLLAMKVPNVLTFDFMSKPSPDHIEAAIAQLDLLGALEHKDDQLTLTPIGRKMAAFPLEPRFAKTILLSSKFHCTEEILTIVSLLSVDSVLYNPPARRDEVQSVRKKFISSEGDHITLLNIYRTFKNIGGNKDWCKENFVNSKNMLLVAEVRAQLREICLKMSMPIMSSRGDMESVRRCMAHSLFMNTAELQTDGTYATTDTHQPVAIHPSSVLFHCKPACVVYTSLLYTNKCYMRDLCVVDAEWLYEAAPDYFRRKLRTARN
Nature of the assay: Inhibition of the helicase activity of DHX33 protein in vitro. The note with it: recombinant DHX33 protein, compound 1-1000 nM, 37° C., 60 minutes; read-out: IC50 (inhibitory effects of the compounds on the helicase activity of DHX33 protein). The assay is classed as biochemical. As for the experimental part:
Biochemistry. 2019:58 (4):250-8. RNA helicase gene (mouse DHX33 gene) was cloned into a pET32M-3C vector (between BamH I/Not I restriction sites). Afterward, the plasmid was transformed into BL-21pLysS (DE3) E. coli. 0.5 mM isopropyl 1-thio-βp-D-galactopyranoside (IPTG) was added, and the expression of the recombinant protein was induced at 16° C. for 16 hours. Cells were allowed to precipitate and were resuspended in a cell lysis buffer [50 mM Tris-HCl (pH7.2), 150 mM NaCl, 1% Triton X-100, and 50 mM imidazole supplemented with a protease inhibitor]. Thereafter, cells were subjected to ultrasonic treatment and centrifuged at a rotation speed of 13000 rpm for 25 minutes. The supernatant was incubated with the nickel-nitrilotriacetic acid beads equilibrated in Tris buffer, followed by sufficient washing. Thereafter, the purified protein was eluted with a solution of 300 mM imidazole in Tris buffer, and was then subjected to dialysis against an imidazole-free Tris buffer at 4° C. overnight.
The components involved in the reaction for testing the helicase activity were added to a 96-well opaque white plate. The method was outlined as follows. The 96-well plate was coated with neutravidin at a final concentration of 10 μg/mL (100 μl/well) overnight at 4° C. Afterwards, the neutravidin-coated plate was blocked with 100 μL of 0.1% (w/v) BSA (dissolved in normal PBS) at 22° C. for 2 hours. After washing, a DNA duplex (2.5 ng) that was resulted from the annealing of two single-stranded DNA oligonucleotides (the sequence of one single strand was biotin-labeled 5′-[…]-3′; and the sequence of the other single strand was DIG-labeled 5′-[…]-3′) [the annealing reaction was carried out in PBS (pH 7.0) containing 1M NaCl] was added, and the resulting mixture was incubated at 22° C. for 4 hours. After the addition of 90 μL of the reaction mixture, the helicase reaction was initiated [0.25 pig of purified full-length DHX33 protein, dissolved in 25 mM 4-MOPS (pH 7.0), 5 mM ATP 2 mM DTT, 3 mM MnCl2 and 100 μg/mL BSA]. The reaction was conducted at 37° C. for 60 minutes. After being washed, each well was incubated with a blocking solution [10% (w/v) BSA in 0.1 M maleic acid and 0.15 M NaCl (pH 7.5)] for 30 minutes, and was then incubated with 20 μL of antibody solution (anti-DIG-AP, Roche, in blocking buffer) for 30 minutes. After being washed with 100 μL of detection buffer [0.1 M Tris-HCl and 0.1 M NaCl (pH 9.5)], each well was added with 1 μL of chemiluminescent substrate (CSPD-0.25 mM), and the plate was incubated at 17° C. for 5 minutes. Afterwards, the plate was patted dry and incubated at 37° C. for 30 minutes. The remaining DIG-AP marker control in each well was counted for 10 minutes by a luminescence multi-well plate reader (Enspire, PerkinElmer). Higher reading indicated weaker helicase activity.
Positive control and negative controls were set for this acticity assay. Among them, one negative control group, which differed from the experimental group only in that the former was not added with ATP (other conditions were the same as the experimental group), was used for the comparison with the experimental group; another negative control group, which differed from the experimental group only in that the former was not added with DHX33 protein (other conditions were the same as the experimental group), was used for the comparison with the experimental group. The positive control group was set for the comparison with the wild-type DHX33 protein (standard substance).
Biochemistry. 2019:58 (4):250-8.
Compounds having a series of concentration (the concentrations were set at 1 nM, 5 nM, 10 nM, 20 nM, 50 nM, 100 nM, 250 nM, 500 nM, and 1000 nM) were used to conduct the helicase activity assay of […] protein in vitro. The half-maximal inhibitory concentrations of the compounds of the present disclosure on the helicase activity of […] protein were as shown in Table 1.

A further assay has as its system U251-MG cells. The assay can be described thus: Half-maximal cell-inhibitory concentration on U251-MG cells (CCK-8). The following applies: Homo sapiens, U-251, U251-MG cells (DHX33-overexpressing cancer cell strain), 48 hours, read-out: IC50 (half-maximal inhibitory concentrations of compounds on U251-MG cells). The format is cell-based. The method, boiled down:
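[…]-overexpressing glioma cells seeded at 1×10^4 cells/well, exposed to compound from 5 nM to 20 μM for 48 hours at 37° C, 5% CO2. Viability read by CCK-8 after 2 hours (OD 450 nm); IC50 from inhibition curves, three repeats.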

The structures appear in SMILES notation. Some results are limits rather than exact numbers.

Turning to `COc1ccc2nc(/C(C#N)=C/c3cc(C)n(-c4oc(C)c(C)c4C#N)c3C)[nH]c2c1` [AB24202, (E)-2-(3-(2-cyano-2-(6-methoxy-1H-benzo[d]imidazol-2-yl)vinyl)-2,5-dimethyl-1H-pyrrol-1-yl)-4,5-dimethylfuran-3-carbonitrile], the figures for the IC50 at DHX33 protein and in the assay with U251-MG cells were 0.02 to 0.1 µM and 0.1 to 1 µM, respectively.
The like results for `Cc1oc(-n2c(C)cc(/C=C(\C#N)c3nc4ccc(F)cc4[nH]3)c2C)c(C#N)c1C` [AB24205] were, in that order, 0.1 to 0.4 µM and 1 to 5 µM.
In the same order, the values of `Cc1oc(-n2c(C)cc(/C=C(\C#N)c3nc4ccc(C(F)(F)F)cc4[nH]3)c2C)c(C#N)c1C` [AB24243, (E)-2-(3-(2-cyano-2-(6-(trifluoromethyl)-1H-benzo[d]imidazol-2-yl)vinyl)-2,5-dimethyl-1H-pyrrol-1-yl)-4,5-dimethylfuran-3-carbonitrile] are 0.1 to 0.4 µM and 1 to 5 µM.
In the same order, the values of `Cc1oc(-n2c(C)cc(/C=C(\C#N)c3nc4ccncc4[nH]3)c2C)c(C#N)c1C` [AB24249] are 0.1 to 0.4 µM and 5 to 20 µM.
Regarding `COc1cc2nc(/C(C#N)=C/c3cc(C)n(-c4oc(C)c(C)c4C#N)c3C)[nH]c2cn1` [AB24254, (E)-2-(3-(2-cyano-2-(6-methoxy-3H-imidazo[4,5-c]pyridin-2-yl)vinyl)-2,5-dimethyl-1H-pyrrol-1-yl)-4,5-dimethylfuran-3-carbonitrile], the IC50 is below 0.02 µM on DHX33 protein and below 0.1 µM in the assay with U251-MG cells.
In the same order, the values of `Cc1cc(/C=C(\C#N)c2nc3ccccc3[nH]2)c(C)n1-c1ccncc1` [AB24259] are 0.1 to 0.4 µM and 1 to 5 µM.
In the same order, the values of `Cc1sc(-n2c(C)cc(/C=C(\C#N)c3nc4ccccc4[nH]3)c2C)c(C#N)c1C` [AB24264, (E)-2-(3-(2-(1-(1-H-benzo[d]imidazol-2-yl]-2-cyanovinyl])-2,5-dimethyl-1H-pyrrol-1-yl)-4,5-dimethylthiophene-3-carbonitrile] are 0.1 to 0.4 µM and 1 to 5 µM.
The like results for `Cc1cc(C#N)c(-n2c(C)cc(/C=C(\C#N)c3nc4ccccc4[nH]3)c2C)s1` [AB24270, (E)-2-(3-(2-(1H-benzo[d]imidazol-2-yl)-2-cyanovinyl)-2,5-dimethyl-1H-pyrrol-1-yl)-5-methylthiophene-3-carbonitrile] were, in that order, 0.02 to 0.1 µM and 0.1 to 1 µM.
As to `Cc1cc(/C=C(\C#N)c2nc3ccccc3[nH]2)c(C)n1-c1oc(-c2ccccc2)cc1C#N` [AB24283, (E)-2-(3-(2-(1H-benzo[d]imidazol-2-yl)-2-cyanovinyl)-2,5-dimethyl-1H-pyrrol-1-yl)-5-phenylfuran-3-carbonitrile], the values for the IC50 on DHX33 protein and with U251-MG cells were 0.1 to 0.4 µM and 1 to 5 µM, respectively.
In the same order, the values of `COc1cc2nc(/C(C#N)=C/c3cc(C)n(-c4sc(C)cc4C#N)c3C)[nH]c2cn1` [AB24288, (E)-2-(3-(2-cyano-2-(6-methoxy-3H-imidazo[4,5-c]pyridin-2-yl)vinyl)-2,5-dimethyl-1H-pyrrol-1-yl)-5-methylthiophene-3-carbonitrile] are below 0.02 µM and below 0.1 µM.
The like results for `CCOC(=O)c1nc(C)sc1-n1c(C)cc(/C=C(\C#N)c2nc3cc(OC)ncc3[nH]2)c1C` [AB24314, ethyl (E)-5-(3-(2-cyano-2-(6-methoxy-3H-imidazo[4,5-c]pyridin-2-yl)vinyl)-2,5-dimethyl-1H-pyrrol-1-yl)-2-methylthiazole-4-carboxylate] were, in that order, 0.02 to 0.1 µM and 0.1 to 1 µM.
For the compound `COc1ccc2nc(/C(C#N)=C/c3cc(C)n(-c4sc(C)cc4C#N)c3C)[nH]c2c1` [AB24321], the IC50 on DHX33 protein is below 0.02 µM; in the assay on U251-MG cells it was 0.1 to 1 µM.
In the same order, the values of `COC(=O)c1c(-n2c(C)cc(/C=C(\C#N)c3nc4ccc(OC)cc4[nH]3)c2C)sc(C)c1C` [AB24322, methyl (E)-2-(3-(2-cyano-2-(6-methoxy-1H-benzo[d]imidazol-2-yl)vinyl)-2,5-dimethyl-1H-pyrrol-1-yl)-4,5-dimethylthiophene-3-carboxylate] are 0.1 to 0.4 µM and 1 to 5 µM.
`COC(=O)c1cc(C)c(-n2c(C)cc(/C=C(\C#N)c3nc4cc(OC)ncc4[nH]3)c2C)s1` [AB24335]: the IC50 on DHX33 protein lay in the range of 0.02 to 0.1 µM; in the assay on U251-MG cells, 1 to 5 µM.
In the same order, the values of `COc1cc2nc(/C(C#N)=C/c3cc(C)n(-c4sc(-c5ccccn5)cc4C#N)c3C)[nH]c2cn1` [AB24336, (E)-2-(3-(2-cyano-2-(6-methoxy-3H-imidazo[4,5-c]pyridin-2-yl)vinyl)-2,5-dimethyl-1H-pyrrol-1-yl)-5-(pyridin-2-yl)thiophene-3-carbonitrile] are 0.1 to 0.4 µM and 1 to 5 µM.
For the compound `COc1ccc2c(c1)[nH]c1cc(-c3cc(C)n(-c4sc(C)cc4C#N)c3C)ccc12` [AB24350, 2-(3-(7-methoxy-9H-carbazol-2-yl)-2,5-dimethyl-1H-pyrrol-1-yl)-5-methylthiophene-3-carbonitrile], the IC50 on DHX33 protein was in the range of 0.1 to 0.4 µM.
For the compound `COc1cc2nc(/C(C#N)=C/c3cc(C)n(-c4sc(C)nc4C(N)=O)c3C)[nH]c2cn1` [AB24351, (E)-5-(3-(2-cyano-2-(6-methoxy-3H-imidazo[4,5-c]pyridin-2-yl)vinyl)-2,5-dimethyl-1H-pyrrol-1-yl)-2-methylthiazole-4-carboxamide], the results for the IC50 on DHX33 protein and in the assay with U251-MG cells were 0.02 to 0.1 µM and 0.1 to 1 µM, respectively.
The like results for `COc1ccn2c(c1)nc1cc(-c3cc(C)n(-c4sc(C)cc4C#N)c3C)ccc12` [AB24379, 2-(3-(3-methoxybenzo[4,5]imidazo[1,2-a]pyridin-7-yl)-2,5-dimethyl-1H-pyrrol-1-yl)-5-methylthiophene-3-carbonitrile] were, in that order, 0.02 to 0.1 µM and 1 to 5 µM.
The like results for `COc1ccc2nc(NC(=O)c3cc(C)n(-c4sc(C)cc4C#N)c3C)[nH]c2c1` [AB24386, 1-(3-cyano-5-methylthiophen-2-yl)-N-(6-methoxy-1H-benzo[d]imidazol-2-yl)-2,5-dimethyl-1H-pyrrole-3-carboxamide] were, in that order, below 0.02 µM and below 0.1 µM.

The values above are taken from US20230146233A1, “A CLASS OF POLYCYCLIC COMPOUNDS INHIBITING RNA HELICASE DHX33 AND THE APPLICATION THEREOF” (Shenzhen KeYe Life Technologies, Co., Ltd, priority 2020, published 2023).
